According to patent US7332605B2, “Process for the synthesis of CXCR4 antagonist” (AnorMED, Inc., priority 2004, dated 2008):
Converted amounts (≈) assume the structure as drawn. Like-named read-outs stand apart in the source and are kept apart here.

How the values were obtained:
HIV, X4 (T-tropic) virus = conditions: in humans; cited from earlier work
[1] = Solubility of Formula I compound in aqueous media; assay type: physicochemical; conditions: aqueous media at a pH at or below 6.0
Text: The Formula I compound in freebase form, in a mixture of dichloromethane and another solvent can be washed with an aqueous base such as 0.5N sodium hydroxide to remove traces of hydrazine. The Formula I compound can then be extracted into a dilute aqueous acid such as 1N hydrochlororic acid. […] If the pH of the aqueous solution is below 5, it can then be adjusted to 5-7, with a preferred pH being 6.0 for the removal of impurities. Non-polar organic impurities will remain in the organic layer. A number of solvents can be used, if desired, for further extraction of non-polar organic impurities including ethyl acetate, methyl t-butyl ether, tetrahydrofuran, dichloromethane and chloroform.

[2] = Solubility of compound I in organic crystallization solvents; assay type: physicochemical; conditions: organic solvent or mixture
Procedure: A crystallization solvent (solvent B) is then added which can include, but is not limited to the following, or mixtures of the following: tetrahydrofuran, ethyl acetate, cumene, isopropyl acetate, n-propyl acetate, dichloromethane, ethanol, isopropanol, methanol, isopropyl ether, diethyl ether and t-butyl methyl ether. A preferred solvent is isopropyl acetate. A sufficient volume of solvent B is added to typically reach a complete solvation of compound I at an elevated temperature. The elevated temperature will depend on the nature of the solvent, with a reflux condition being the highest temperature possible.
The crystalline compound I may also be isolated from a number of different solvent systems. Compound I is soluble at >600 mg/mL in 55° C. tetrahydrofuran, and can be recovered as crystalline material by cooling the solution. Similarly, compound I can be isolated as crystalline material from a hot solution of cumene. Compound I is very soluble in dichloromethane (>700 mg/mL), but can be precipitated as a crystalline material from the solution through the addition of diethyl ether. Ethyl acetate is an effective solvent for crystallization, with solubilities of compound I of ca. 150 mg/mL at 60° C. being achievable.

Row | solubility in aqueous media [1] | solubility ([2]; 60 °C, isopropyl acetate at 60-65° C., read-out: complete solubility in isopropyl acetate) | solubility ([2]; dichloromethane, read-out: solubility in dichloromethane) | solubility ([2]; 55° C. tetrahydrofuran, read-out: solubility in tetrahydrofuran) | solubility ([2]; ethyl acetate at 60° C., read-out: solubility in ethyl acetate) | SMILES | effect on HIV viral load and X4 (T-tropic) virus levels (HIV, X4 (T-tropic) virus)
1 | – | – | – | – | – | c1cc(CN2CCCNCCNCCCNCC2)ccc1CN1CCCNCCNCCCNCC1 [AMD3100] | reduce HIV viral load and X4 (T-tropic) virus levels
2 | readily soluble | ~125 mg/mL (≈ 358 mM) | > 700 mg/mL | > 600 mg/mL | ~150 mg/mL (≈ 429 mM) | NCCCCN(Cc1nc2ccccc2[nH]1)C1CCCc2cccnc21 (stereo not drawn) [Compound I, N′-(1H-benzimidazol-2-ylmethyl)-N′-(5,6,7,8-tetrahydro-quinolin-8-yl)-butane-1,4-diamine] | –
